Literature values, collected in US12310957B2, “Bowel cleansing composition” (priority 2013, dated 2025).

Test system: patients undergoing colonoscopy
Details: Nunes et al. 2008, scale proposed by the authors

## OC[C@@H](O)[C@@H](O)[C@H](O)[C@H](O)CO [mannitol]
  rate of adequate bowel cleansing: 75%
